Earlier results, collected in patent US20060211664A1, “Method for treating erectile dysfunction and increasing libido in men” (priority 2002, published 2006).
Where a name gives a salt, the structure may show the parent alone.

Legend:
[1] = molecular target: sex hormone binding globulin (SHBG) and albumin (Homo sapiens, UniProt P02768); conditions: in men
[2] = molecular target: T1, sex hormone binding globulin (SHBG) and albumin (Homo sapiens, UniProt P04278); conditions: in men, high-affinity
T1 sequence (P04278 30-402): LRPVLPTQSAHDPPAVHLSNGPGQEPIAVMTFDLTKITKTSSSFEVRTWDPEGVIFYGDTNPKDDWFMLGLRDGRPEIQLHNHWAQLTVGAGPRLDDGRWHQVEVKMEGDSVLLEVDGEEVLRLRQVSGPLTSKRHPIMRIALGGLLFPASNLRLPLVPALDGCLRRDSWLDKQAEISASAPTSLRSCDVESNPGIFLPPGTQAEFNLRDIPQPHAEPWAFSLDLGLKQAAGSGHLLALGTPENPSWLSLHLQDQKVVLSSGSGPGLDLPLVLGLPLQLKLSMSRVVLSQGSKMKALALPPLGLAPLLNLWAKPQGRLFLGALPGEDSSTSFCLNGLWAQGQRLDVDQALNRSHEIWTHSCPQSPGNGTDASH

[3] = tested on: sex hormone binding globulin (SHBG) and albumin; conditions: blood
[4] = tested on: isolated human corpus cavernosum

Chain of sex hormone binding globulin (SHBG) and albumin (Homo sapiens, UniProt P02768) (P02768 25-609): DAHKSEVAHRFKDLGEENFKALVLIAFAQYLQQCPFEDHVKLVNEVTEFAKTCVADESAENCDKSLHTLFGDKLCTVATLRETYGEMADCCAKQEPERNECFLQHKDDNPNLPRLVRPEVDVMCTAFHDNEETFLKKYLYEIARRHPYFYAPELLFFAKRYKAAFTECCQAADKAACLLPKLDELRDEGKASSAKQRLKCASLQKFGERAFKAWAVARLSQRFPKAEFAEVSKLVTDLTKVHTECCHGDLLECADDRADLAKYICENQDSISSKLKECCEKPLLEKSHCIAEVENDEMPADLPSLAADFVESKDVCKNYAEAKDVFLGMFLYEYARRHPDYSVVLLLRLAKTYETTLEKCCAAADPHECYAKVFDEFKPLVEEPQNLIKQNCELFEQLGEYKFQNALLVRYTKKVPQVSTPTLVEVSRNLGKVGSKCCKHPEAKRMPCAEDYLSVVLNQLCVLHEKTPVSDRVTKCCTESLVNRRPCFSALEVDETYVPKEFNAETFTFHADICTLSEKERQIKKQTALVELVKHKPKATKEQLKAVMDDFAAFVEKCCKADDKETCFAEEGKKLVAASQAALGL

Compound | share of the binding bound weakly to albumin [1] [%] | share of the binding to sex hormone binding globulin (SHBG) [2] | testosterone in the blood bound to protein [3] [%] | direct relaxant effect on isolated human corpus cavernosum [4]
C[C@]12CC[C@H]3[C@@H](CCC4=CC(=O)CC[C@@]43C)[C@@H]1CC[C@@H]2O [Testosterone, testosterone] | 60 | approximately 40% | 98 | 
CCCc1nn(C)c2c(=O)[nH]c(-c3cc(S(=O)(=O)N4CCN(C)CC4)ccc3OCC)nc12 [VIAGRA®, sildenafil citrate USP] |  |  |  | no direct relaxant effect
